Conditions: acidic group

Row | Structure (SMILES) | pKa
1 | Nc1nc(N)c2[nH]cnc2n1 | 10.8
2 | CS(=O)(=O)c1ccc(S(=O)(=O)NCc2ccccc2)cc1 | 10.2
3 | O=C(O)c1sccc1[N+](=O)[O-] | 2.68
4 | Fc1cccc(NC(=S)c2cccc(Br)c2)c1 | 10
5 | O=C(O)Cc1[nH]c2ccccc2[nH+]1 | 0.2
6 | O=S1(=O)N=CNc2ccncc21 | 6.71
7 | O=C(O)c1ccc(Br)s1 | 3.3
8 | CC1=C(C)C(C(C)C(=O)O)CC1=O (configuration not stated) | 4.4
9 | O=C([O-])CCC(=O)NOCc1ccccc1 | 10.2
10 | Cc1ccc(O)c(CN(C)C)c1 | 11.2
11 | Cc1c(Cn2cc[nH+]c2)sc2ccc(C(=O)O)cc12 | 3.82
12 | CC(C)([SeH])C[NH3+] | 5.21
13 | Cc1ccc(Cl)c(C(=O)O)c1 | 3.12
14 | O=c1cc(-c2cccc(O)c2)oc2ccccc12 | 9.75
15 | N#Cc1ccc(O[C@H]2O[C@@H](C(=O)O)[C@H](O)[C@@H](O)[C@@H]2O)cc1 | 3.22
16 | O=C(O)c1cc2ccccc2o1 | 2.84
17 | C[NH+]1C[C@@H](C(=O)O)C[C@@]2(O)c3cccc4[nH]cc(c34)C[C@H]12 | 3.38
18 | NNC(=O)C(F)F | 9.66
19 | CCC(C)(O)C(C(=O)O)c1ccc(-c2ccccc2)cc1 (configuration not stated) | 3.41
20 | Oc1ccc(/N=N/c2ccncc2)cc1 | 7.73
21 | Cc1ccccc(=O)c1O | 7.92
22 | Cc1ccc(S(N)(=O)=O)cc1C | 9.62

Row | Structure (SMILES) | pKa
23 | O=C(O)[C@@H]1CC[C@@H](C(=O)O)S1 | 3.3
24 | Cc1c[n+]([C@@H]2C[C@@H](O)[C@H](CO)O2)c(O)nc1N | 4.4
25 | CN(C)c1cccc(O)c1 | 9.85
26 | CCCCCCCC[NH2+]CCC(=O)O | 3.56
27 | CC[NH2+]CC(=O)O | 2.31
28 | CC(=O)CC(=O)Nc1ccccc1 | 9.94
29 | O=CC(c1ccccc1)c1ccccc1 | 9.39
30 | O=C(O)CCBr | 3.86
31 | O=[N+]([O-])c1cc(Cl)ccc1O | 3.5
32 | N#CC(CC(=O)O)c1ccccc1 (configuration not stated) | 3.79
33 | CC[NH+](C)CCCNC(=O)/C=N/O | 8.72
34 | COP(=O)([O-])NS(C)(=O)=O | 6.55
35 | Oc1c(Cl)cc(Cl)c(Cl)c1C[NH+]1CCCCC1 | 5.06
36 | C[C@H](O)C(=O)C1=Nc2c(nc(N)[nH+]c2O)NC1 | 1.45
37 | Oc1cccc(Br)c1 | 8.99
38 | O=CO | 3.69
39 | O=Cc1cccc(Cl)c1O | 6.61
40 | CSc1nc2cc3c(cc2[nH]1)CCCC3 | 13
41 | O=[N+]([O-])c1cccc(/C=C/C=N/O)c1 | 10.2
42 | CSC(C)C(=O)O (configuration not stated) | 3.76
43 | O=C1NC(=O)C(=NO)C(=O)N1 | 4.58
44 | CC(=O)[n+]1ccc(C#N)cc1 | 1.98

Row | Structure (SMILES) | pKa
45 | C=CCCC(=O)O | 4.68
46 | O=C(O)c1csc(Cl)c1 | 3.8
47 | Cc1ccc2ccccc2c1C(=O)O | 3.11
48 | CO/C([O-])=N/c1ncnc2nc[nH]c12 | 12.1
49 | COc1cccc(S(N)(=O)=O)c1 | 9.39
50 | CC(=O)N(C)c1nnc(S(N)(=O)=O)s1 | 7.4
51 | NNC(=O)c1ccccc1 | 12.4
52 | CCN(CC)Cc1cc(OC)ccc1O | 10.9
53 | CCc1cc(C(C)C)ccc1O | 10.8
54 | Brc1ccc(-c2nnn[nH]2)cc1 | 3.73
55 | O=C(O)C[C@]1(O)C[C@H]2C=C[C@@H]1C2 | 4.36
56 | O=C1CCc2cc(I)ccc2C1 | 12.4
57 | CCC(CC)C1(CC)C(=O)[N-]C(=S)NC1=O | 12.4
58 | COc1ccccc1/C=C/C=N\O | 11.3
59 | CCOC(=O)/C=C(/C)O | 9.51
60 | CCOC(=O)CC(=O)c1ccc(C)cc1 | 10.7
61 | [O-]c1ccc(O)n[nH+]1 | 5.73
62 | CC(=O)CC(=O)C(C)(C)C | 9.94
63 | Cc1cc(N(C)C)cc[n+]1O | 4.37
64 | CCCCCc1c(-c2ccccc2)nn(-c2ccccc2)c1O | 7.3
65 | COc1cccc2c1-c1c(O)cccc1-2 | 9.15
66 | Sc1[nH+]ccc2ccccc12 | -1.9

Row | Structure (SMILES) | pKa
67 | O=[N+]([O-])c1cc[n+](O)cc1 | -1.7
68 | CC1CCCC(=O)C1=O (configuration not stated) | 11.2
69 | Cc1nc(NS(=O)(=O)c2ccc(N)cc2)no1 | 4.4
70 | O=C(O)c1csc(Br)c1 | 3.7
71 | CC(=O)Nc1ccc(S(=O)(=O)Nc2nccc(C)n2)cc1 | 5.46
72 | O=C1CC(S)C(=O)N1 (configuration not stated) | 6.65
73 | CC1(C)CC(=O)C(Br)C(=O)C1 | 3.1
74 | O=[N+]([O-])c1ccc(O)c(C[NH+]2CCOCCOCCOCCOCC2)c1 | 5.79
75 | CC1(C)SC(=S)NC1=O | 5.38
76 | CC(=O)OCC(=N/O)/C(C)=N/O | 9.7
77 | CCCC(C)C1(CC)C(=O)N=C([O-])NC1=O (configuration not stated) | 12.4
78 | O=[N+]([O-])c1ccccc1B(O)O | 8.52
79 | O=C([O-])C[NH2+]CCc1nnn[nH]1 | 4.32
80 | CCC1(c2ccccc2)C(=O)NC(=S)N(C)C1=O (configuration not stated) | 7.65
81 | Sc1cc2ccccc2cn1 | 8.58
82 | N#Cc1c(-c2nc3cc(Cl)ccc3o2)c(=O)oc2cc(O)ccc12 | 6
83 | CC(=O)CC(=O)Nc1cccc(C)c1 | 10
84 | O=C(O)[C@@H]1CCC[C@H](O)C1 | 4.6
85 | Sc1cccc[nH+]1 | -1.22

Same assay, conditions: basic group

Row | Structure (SMILES) | pKa
86 | Nc1nc(N)c2[nH]cnc2n1 | 5.05
87 | C=C(C)C(=O)OCCNCC(C)C | 8.91
88 | CCN(CC)CCC#N | 7.62
89 | O=C(O)Cc1[nH]c2ccccc2[nH+]1 | -4.7
90 | Cc1ccc(O)c(CN(C)C)c1 | 8.68
91 | CCN(CC)CCCNC(=O)/C=N/[O-] | 10.3
92 | C[NH+]1CCCC1c1cccnc1 (configuration not stated) | 3.01
93 | O=Cc1ccccn1 | 3.86
94 | CCOC(=O)C1(c2ccccc2)CCN(C)CC1 | 8.6
95 | CC[NH+](CC)CCCCC(C)Nc1c2ccc(Cl)cc2nc2ccc(OC)cc12 (configuration not stated) | 7.74
96 | C=C(C)C(=O)OCCCN | 9.62
97 | C1CCN2CCCCN2C1 | 6.79
98 | Cc1c(N)ccc2c1-c1ccccc1C2 | 4.83
99 | CC(C)N(CCc1ccccc1)CCc1ccccc1 | 10
100 | O=C(c1ccccc1)N1CCNCC1 | 7.79
101 | C=C(C)C(=O)OCCN(C(C)C)C(C)C | 8.77
102 | [O-]c1ccnnc1 | 8.68
103 | Nc1ccnc(N)n1 | 7.26
104 | Oc1ccc(/N=N/c2ccncc2)cc1 | 4.65
105 | CCN(CC)CCNc1nc(C)cc(Nc2ccc(Cl)cc2)n1 | 9.6
106 | Nc1cccc(-c2ccccn2)n1 | 5.8
107 | NC(=O)CCCCc1ccccn1 | 5.73
108 | c1coc(-c2ccncc2)c1 | 5.6

Row | Structure (SMILES) | pKa
109 | NC12CCC(C1)C2 | 9.3
110 | COc1cccc(C(=O)NC2CC3CCC(C2)N3Cc2ccccc2)c1OC (configuration not stated) | 8.91
111 | NC(CCc1ccc([N+](=O)[O-])cc1)C(=O)[O-] (configuration not stated) | 9.1
112 | C[C@@H](O)[C@H](CCC=O)O[C@H]1O[C@H](C)[C@@H](N(C)C)[C@H](O)[C@H]1O | 7
113 | Nc1ccc2c(Cl)c3ccccc3nc2c1 | 6.74
114 | CCCNCC(=O)O | 10
115 | CN(C)CCNC(=O)/C=N/[O-] | 9.43
116 | O=CC(c1ccccc1)c1ccccc1 | 9.42
117 | CN1CCCC1 | 10.6
118 | N#CC(CCN1CCCCC1)(c1ccccc1)c1ccccc1 | 8.07
119 | c1ccc(CN(CC2CO2)CC2CO2)cc1 (configuration not stated) | 5.75
120 | CCc1cc(-c2ccccc2)nnc1NCC[NH+]1CCOCC1 | 4.37
121 | OCC[NH+](CCO)Cc1nc2ccccc2[nH]1 | 2.15
122 | [O-]c1cccnn1 | 10.5
123 | CCN(CC)CC(=O)Nc1cc(C)ccc1C | 7.92
124 | Fc1cc2nc[nH]c2cc1Cl | 4.33
125 | CCCCNN | 7.82
126 | NCCCCCCBr | 10.6
127 | Nc1cccc2ccnnc12 | 3.68
128 | CSc1nc2cc3c(cc2[nH]1)CCCC3 | 5
129 | Cc1cc(-c2ccccc2)nnc1NCC[NH+]1CCOCC1 | 4
130 | CNc1nnc(-c2ccccc2)s1 | 2.8
131 | CC1/C(=N\O)C[C@@H]2N=C(c3ccccc3)O[C@@]13[C@@H]1OC(=O)[C@H](C)[C@H]1CC[C@]23C (some centres not stated) | 4.65

Row | Structure (SMILES) | pKa
132 | CCCCCCCCCCCCN(CCO)CC(O)CC (configuration not stated) | 6.4
133 | CC(N)C(=O)[O-] (configuration not stated) | 9.83
134 | CC(C)C(=O)C(C)(C)CN(C)C | 9.3
135 | c1ncc2c(n1)NCCN2 | 6.63
136 | NNC(=O)c1ccccc1 | 3.02
137 | CN(C(=O)c1ccccc1)c1ccccn1 | 1.44
138 | CN1CC=CC1c1cccnc1 (configuration not stated) | 7.04
139 | CC(C)C1CC(CC(=O)[O-])NC1C(=O)[O-] (configuration not stated) | 10.4
140 | CN1CCC(NN)CC1 | 8.85
141 | CCN(CC)Cc1cc(OC)ccc1O | 8.62
142 | C1CN=C2NCCC2C1 (configuration not stated) | 11.7
143 | Cc1cc(C)c2ccc3c(C)cc(C)nc3c2n1 | 6.5
144 | Cc1ccc(N)cc1-c1cc(N)ccc1C | 5
145 | Cc1nc2cccc(N)c2n1C | 6.66
146 | NC(=O)Cc1ccccn1 | 4.34
147 | CCCN1CCCCC1 | 10.4
148 | Nc1cc[nH]n1 | 4.11
149 | NC(=S)C[NH3+] | -8.39
150 | C[C@H](CCCNCc1ccccc1)[C@H]1CC[C@H]2[C@@H]3[C@H](O)C[C@@H]4C[C@H](O)CC[C@]4(C)[C@H]3CC[C@]12C | 9.07
151 | C=CCCN1C[C@H]2C[C@@H](C1)c1cccc([O-])[n+]1C2 | 7
152 | CC(C)(C)c1ccccc1N | 3.78
153 | c1ccc(CNC(CC2CCCCC2)CC2CCCCC2)cc1 | 7.7
154 | CC(=O)Oc1ccccc1C(=O)NCC(=O)O | 3.77

Row | Structure (SMILES) | pKa
155 | CCN(CC)CCC(OC(=O)c1ccccc1)c1ccccc1 (configuration not stated) | 7.53
156 | Cc1nnc2c(c1C)CCCC2 | 5.41
157 | CCCCN(C)C | 10
158 | CC(=O)c1ccc(/N=N/c2c(N)n[nH]c2N)cc1 | 3.32
159 | CCN(CC)NC | 7.14
160 | CCCNCCNCCC | 10.3
161 | CC(=O)SCCN(C)C | 8.27
162 | [NH3+][C@@H](Cc1nc[nH]c1I)C(=O)[O-] | 4.18
163 | Cc1cc(C)c(C)nn1 | 4.81
164 | CC(=O)Nc1ccc(S(=O)(=O)Nc2nccc(C)n2)cc1 | 0.9
165 | Nc1nc2c(o1)CCCC2 | 5.75
166 | NCCCc1ccncc1 | 9.98
167 | CC(=O)c1ccc(N)cc1 | 2.27
168 | C#C[C@]1(O)C[C@H](C)N[C@@H]2CCCC[C@H]21 | 9.63
169 | CC1(C)CCC(C2CCC(C)(C)[NH2+]2)N1 (configuration not stated) | 6.95
170 | NC(Cc1n[nH]c2ccccc12)C(=O)[O-] (configuration not stated) | 8.95
171 | OC1C=CC=CC=C1 | -7
172 | [NH3+]Cc1ccccn1 | 3.1
173 | Sc1cc2ccccc2cn1 | 0.39
174 | CCCCCCN(CC(C)O)CC(C)O (configuration not stated) | 8.5
175 | O=C([O-])c1nc[nH]c1C(=O)[O-] | 8.49
176 | CN(C)Cc1cc(Cl)ccc1[O-] | 11
177 | Cc1c[nH]c(C)c1 | 2.04

— the pKa sets of Baltruschat and Czodrowski (2020)
